In patent US10414774B2, “Compound useful for altering the levels of bile acids for the treatment of diabetes and cardiometabolc disease” (Merck Sharp & Dohme Corp., priority 2016, dated 2019):

molecular target: T1, Human CYP8B1 (Homo sapiens, UniProt Q9UNU6); test: Human CYP8B1 Liver Microsome Assay; settings: Human CYP8B1 IC50, human liver microsomes; substrate 7a-hydroxy-4-cholesten-3-one, NADPH; RapidFire MS detection of 7α,12α-dihydroxy-4-cholesten-3-one
T1 sequence (Q9UNU6 1-501): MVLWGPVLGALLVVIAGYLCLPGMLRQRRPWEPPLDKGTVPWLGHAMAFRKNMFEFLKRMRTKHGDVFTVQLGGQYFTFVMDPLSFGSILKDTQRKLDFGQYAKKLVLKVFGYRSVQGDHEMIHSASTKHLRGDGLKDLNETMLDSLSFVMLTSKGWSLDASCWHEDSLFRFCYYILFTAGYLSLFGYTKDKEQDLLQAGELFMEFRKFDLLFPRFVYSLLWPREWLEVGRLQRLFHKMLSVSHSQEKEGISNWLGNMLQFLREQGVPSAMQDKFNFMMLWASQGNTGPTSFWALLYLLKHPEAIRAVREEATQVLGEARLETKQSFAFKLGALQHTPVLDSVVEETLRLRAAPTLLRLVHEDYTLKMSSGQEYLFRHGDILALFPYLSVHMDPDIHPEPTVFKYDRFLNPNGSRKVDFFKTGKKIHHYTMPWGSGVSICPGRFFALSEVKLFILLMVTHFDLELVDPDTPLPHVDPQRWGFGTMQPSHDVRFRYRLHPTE
Procedure: To a 384 well polypropylene plate (Corning 3656), 250 nl of inhibitor in 100% DMSO (1.25% final DMSO concentration) was pre-plated using an Echo liquid handler (Labcyte Inc.). Human liver microsomes (Xenotech) were diluted in of 0.1 M phosphate buffer, pH 7.4, at a concentration of 65 μg/ml and 15 μL was added to the 384 well plate. The plates were incubated at ambient room temperature for 30 minutes. After pre-incubation with inhibitor, the reaction was initiated by adding 5 μl of substrate solution (4.0 μM 7a-hydroxy-4-cholesten-3-one (Toronto Research Chemicals), 2 mM of NADPH (Sigma), 0.1 M phosphate buffer (pH 7.4). The reaction was carried out for 45 minutes at ambient room temperature and was quenched by the addition of 50 μl of acetonitrile+0.1% vol/vol formic acid (FA)+300 nM 7α-hydroxy-4-cholesten-3-one-d7 (Toronto Research Chemicals). The plates were sealed and centrifuged at 3000 rpm for 5 minutes. Plates were loaded onto the Agilent RapidFire RF300 HTMS system, wherein samples were sipped for 600 ms, and the sip sensor detection signals the diversion of sample from the loop onto a C4 solid phase extraction (SPE) cartridge, where salts are washed off for 2500 ms with a mobile phase of water with 0.1% vol/vol FA at a flow rate of 1.5 ml/min. The column path was switched, and the sample was eluted off the cartridge and flowed into the mass spectrometer for 3000 ms with a mobile phase of acetonitrile and 0.1% vol/vol FA at a flow rate of 1.25 ml/min. The aspirator tip was washed separately with water and acetonitrile between sample aspirations (each for 600 ms) to minimize carryover contamination. Mass spectrometry was carried out using a Sciex API4000 triple quadrupole mass spectrometer (Applied Biosystems, Concord, ON, Canada) equipped with electrospray ionization (ESI) operated in the positive-ion mode. The product 7α,12α-dihydroxy-4-cholesten-3-one and internal standard 7α-hydroxy-4-cholsten-3-one-d7 were detected using multiple reaction monitoring (MRM) with Q1/Q3 transitions at m/z 417.3 to 381.3 and m/z 408.3 to 390.3, respectively, with a dwell time of 100 ms and a collision energy of 24 V for each transition. The mass spectrometer used an ESI voltage of 5000 V and a source temperature of 650° C. Extracted ion chromatograms for each transition were integrated and processed using the RapidFire Integrator software. The data for each well were normalized by monitoring product conversion with the ratio of AUCproduct/(AUCinternal standard). The data was then fitted to a four parameter logistic fit using ActivityBase Software to calculate an IC50 of the inhibitor.

Row | IC50 [nM] | SMILES
1 | 0.88 | COc1ccc2c(N3CC[C@H](C(=O)N4CCn5c(nnc5C(F)F)C4)[C@H](C)C3)c(C#N)cnc2c1 [Example 70, 4-[(3S,4S)-4-{[3-(difluoromethyl)-5,6-dihydro[1,2,4]triazolo[4,3-a]pyrazin-7(8H)-yl]carbonyl}-3-methylpiperidin-1-yl]-7-methoxyquinoline-3-carbonitrile]
2 | 231 | COc1ccc2c(N3CC[C@@H](C(=O)N4CCn5c(nnc5C(F)(F)F)C4)[C@@H](C4CC4)C3)c(C#N)cnc2c1F [Example 77a, 4-[(3R,4R)-3-cyclopropyl-4-{[3-(trifluoromethyl)-5,6-dihydro[1,2,4]triazolo[4,3-a]pyrazin-7(8H)-yl]carbonyl}piperidin-1-yl]-8-fluoro-7-methoxyquinoline-3-carbonitrile]
3 | 318 | C[C@H]1CN(c2c(C#N)cnc3c(F)c(Cl)ccc23)CC[C@H]1C(=O)N1CCn2c(nnc2C2CC2)C1 [Example 65, 7-chloro-4-{(3R,4R)-4-[(3-cyclopropyl-5,6-dihydro[1,2,4]triazolo[4,3-a]pyrazin-7(8H)-yl)carbonyl]-3-methylpiperidin-1-yl}-8-fluoroquinoline-3-carbonitrile]
4 | 110 | N#Cc1cnc2ccc(Cl)cc2c1C1CCC(C(=O)N2CCn3c(nnc3C(F)(F)F)C2)CC1 (mixture of isomers) [Example 124, 6-chloro-4-(4-{[3-(trifluoromethyl)-5,6-dihydro[1,2,4]triazolo[4,3-a]pyrazin-7(8H)-yl]carbonyl}cyclohexyl)quinoline-3-carbonitrile]
5 | 1.7 | C[C@@H]1CN(c2c(C#N)cnc3c(Cl)cccc23)CC[C@@H]1C(=O)N1CCn2c(nnc2C(F)(F)F)C1 [Example 14, 8-chloro-4-[(3S,4S)-3-methyl-4-{[3-(trifluoromethyl)-5,6-dihydro[1,2,4]triazolo[4,3-a]pyrazin-7(8H)-yl]carbonyl}piperidin-1-yl]quinoline-3-carbonitrile]
6 | 0.54 | C[C@@H]1CN(c2c(C#N)c[n+]([O-])c3cc(OCC4CC4)ccc23)CC[C@@H]1C(=O)N1CCn2c(nnc2C(F)(F)F)C1 [Example 71, 7-(cyclopropylmethoxy)-4-[(3S,4S)-3-methyl-4-{[3-(trifluoromethyl)-5,6-dihydro[1,2,4]triazolo[4,3-a]pyrazin-7(8H)-yl]carbonyl}piperidin-1-yl]quinoline-3-carbonitrile 1-oxide]
7 | 0.38 | C[C@@H]1CN(c2c(C#N)cnc3cc(C(F)(F)F)ccc23)CC[C@@H]1C(=O)N1CCn2c(nnc2C(F)(F)F)C1 [Example 16, 4-[(3S,4S)-3-methyl-4-{[3-(trifluoromethyl)-5,6-dihydro[1,2,4]triazolo[4,3-a]pyrazin-7(8H)-yl]carbonyl}piperidin-1-yl]-7-(trifluoromethyl)quinoline-3-carbonitrile]
8 | 343 | CC[C@H]1CN(c2c(C#N)cnc3c(F)c(OC)ccc23)CC[C@H]1C(=O)N1CCn2c(nnc2C(F)(F)F)C1 [Example 74a, 4-[(3R,4R)-3-ethyl-4-{[3-(trifluoromethyl)-5,6-dihydro[1,2,4]triazolo[4,3-a]pyrazin-7(8H)-yl]carbonyl}piperidin-1-yl]-8-fluoro-7-methoxyquinoline-3-carbonitrile]
9 | 12 | N#Cc1cnc2cc(Br)ccc2c1N1CCC(C(=O)N2CCn3c(nnc3C(F)(F)F)C2)CC1 [Example 40, 7-bromo-4-(4-{[3-(trifluoromethyl)-5,6-dihydro[1,2,4]triazolo[4,3-a]pyrazin-7(8H)-yl]carbonyl}piperidin-1-yl)quinoline-3-carbonitrile]
10 | 0.54 | CC(C)Oc1ccc2c(N3CC[C@H](C(=O)N4CCn5c(nnc5C(F)(F)F)C4)[C@H](C)C3)c(C#N)cnc2c1F [Example 37, 8-fluoro-4-[(3S,4S)-3-methyl-4-{[3-(trifluoromethyl)-5,6-dihydro[1,2,4]triazolo[4,3-a]pyrazin-7(8H)-yl]carbonyl}piperidin-1-yl]-7-(propan-2-yloxy)quinoline-3-carbonitrile]
11 | 1490 | C[C@H]1CN(c2c(C#N)c(C(F)F)nc3ccc(Cl)cc23)CC[C@H]1C(=O)N1CCn2c(nnc2C(F)(F)F)C1 (single isomer, unassigned) [Example 57b]
12 | 3.3 | COc1ccc2c(N3CCC(C(=O)N4CCn5c(C)nnc5C4)C(C)C3)c(C#N)cnc2c1 (stereo not drawn) [Example 84, 7-methoxy-4-{3-methyl-4-[(3-methyl-5,6-dihydro[1,2,4]triazolo[4,3-a]pyrazin-7(8H)-yl)carbonyl]piperidin-1-yl}quinoline-3-carbonitrile]
13 | 0.33 | CC(C)COc1ccc2c(N3CC[C@H](C(=O)N4CCn5c(nnc5C(F)(F)F)C4)[C@H](C)C3)c(C#N)cnc2c1 [Example 101, 7-(2-methylpropoxy)-4-[(3S,4S)-3-methyl-4-{[3-(trifluoromethyl)-5,6-dihydro[1,2,4]triazolo[4,3-a]pyrazin-7(8H)-yl]carbonyl}piperidin-1-yl]quinoline-3-carbonitrile]
14 | 23.2 | N#Cc1cnc2ccc(Cl)cc2c1N1CCC(C(=O)N2CCn3c(nnc3C(F)(F)F)C2)CC1 [Example 103, 6-chloro-4-(4-(3-(trifluoromethyl)-5,6,7,8-tetrahydro-[1,2,4]triazolo[4,3-a]pyrazine-7-carbonyl)piperidin-1-yl)quinoline-3-carbonitrile]
15 | 16.1 | Cn1nc(C(F)(F)F)c2c1CN(C(=O)C1CCN(c3c(C#N)cnc4ccc(Cl)cc34)CC1)CC2 [Example 113, 6-chloro-4-(4-{[1-methyl-3-(trifluoromethyl)-1,4,5,7-tetrahydro-6H-pyrazolo[3,4-c]pyridin-6-yl]carbonyl}piperidin-1-yl)quinoline-3-carbonitrile]
16 | 0.29 | N#Cc1cnc2ccc(Cl)cc2c1N1CC[C@H](C(=O)N2CCn3c(nnc3C(F)(F)F)C2)[C@H](C2CC2)C1 [Example 76c, 6-chloro-4-[(3S,4S)-3-cyclopropyl-4-{[3-(trifluoromethyl)-5,6-dihydro[1,2,4]triazolo[4,3-a]pyrazin-7(8H)-yl]carbonyl}piperidin-1-yl]quinoline-3-carbonitrile]
17 | 0.3 | CC(C)Oc1ccc2c(N3CC[C@H](C(=O)N4CCn5c(nnc5C(F)(F)F)C4)[C@H](C)C3)c(C#N)cnc2c1 [Example 64, 4-[(3S,4S)-3-methyl-4-{[3-(trifluoromethyl)-5,6-dihydro[1,2,4]triazolo[4,3-a]pyrazin-7(8H)-yl]carbonyl}piperidin-1-yl]-7-(propan-2-yloxy)quinoline-3-carbonitrile]
18 | 386 | N#Cc1cnc2ccc(Cl)cc2c1N1CCN(C(=O)N2CCn3c(nnc3C(F)(F)F)C2)CC1 [Example 129, 6-chloro-4-(4-{[3-(trifluoromethyl)-5,6-dihydro[1,2,4]triazolo[4,3-a]pyrazin-7(8H)-yl]carbonyl}piperazin-1-yl)quinoline-3-carbonitrile]
19 | 19 | Cc1nc2ccc(Cl)cc2c(N2CC[C@H](C(=O)N3CCc4sc(C(F)(F)F)nc4C3)[C@H](C)C2)c1C#N [Example 98, 6-chloro-2-methyl-4-[(3S,4S)-3-methyl-4-{[2-(trifluoromethyl)-6,7-dihydro[1,3]thiazolo[4,5-c]pyridin-5(4H)-yl]carbonyl}piperidin-1-yl]quinoline-3-carbonitrile]
20 | 6.4 | CC1CC(C(=O)N2CCn3c(nnc3C(F)(F)F)C2)CCN1c1c(C#N)cnc2ccc(Cl)cc12 (single isomer, unassigned) [Example 73a, 6-chloro-4-[(2R,4R) or (2S,4S)-2-methyl-4-{[3-(trifluoromethyl)-5,6-dihydro[1,2,4]triazolo[4,3-a]pyrazin-7(8H)-yl]carbonyl}piperidin-1-yl]quinoline-3-carbonitrile]
21 | 1150 | Cc1nc2ccc(F)cc2c(N2CCC(C(=O)N3CCn4c(nnc4C(F)(F)F)C3)CC2)c1C#N [Example 45, 6-fluoro-2-methyl-4-(4-(3-(trifluoromethyl)-5,6,7,8-tetrahydro-[1,2,4]triazolo[4,3-a]pyrazine-7-carbonyl)piperidin-1-yl)quinoline-3-carbonitrile]
22 | 0.5 | Cc1nc2ccc(Cl)cc2c(N2CC[C@H](C(=O)N3CCn4c(nnc4C(F)(F)F)C3)[C@H](C)C2)c1C#N [Example 122, 6-chloro-2-methyl-4-((3S,4S)-3-methyl-4-(3-(trifluoromethyl)-5,6,7,8-tetrahydro-[1,2,4]triazolo[4,3-a]pyrazine-7-carbonyl)piperidin-1-yl)quinoline-3-carbonitrile]
23 | 636 | CC1CC(C(=O)N2CCn3c(nnc3C(F)(F)F)C2)CCN1c1c(C#N)cnc2ccc(Cl)cc12 (single isomer, unassigned) [Example 73d, 6-chloro-4-[(2R,4S) or (2S,4R)-2-methyl-4-{[3-(trifluoromethyl)-5,6-dihydro[1,2,4]triazolo[4,3-a]pyrazin-7(8H)-yl]carbonyl}piperidin-1-yl]quinoline-3-carbonitrile]
24 | 1.8 | COc1ccc2c(N3CC[C@H](C(=O)N4CCn5c(nnc5C(F)(F)F)C4)[C@H](C4CC4)C3)c(C#N)cnc2c1F [Example 77b, 4-[(3S,4S)-3-cyclopropyl-4-{[3-(trifluoromethyl)-5,6-dihydro[1,2,4]triazolo[4,3-a]pyrazin-7(8H)-yl]carbonyl}piperidin-1-yl]-8-fluoro-7-methoxyquinoline-3-carbonitrile]
